How the values were obtained:
γ1 γ1 ADH (Class I) = biological target: T1, γ1 γ1 ADH (Class I) (Homo sapiens, UniProt P00326); test: Kinetics of enzymatic reduction of methoxynaphthaldehydes by γ1γ1 ADH; format: biochemical; details: rate relative to ethanol oxidation at pH 10.0
T1 construct: gamma1 allele (ADH1C*1, Arg271 and Ile349 in mature count)

β1 β1 ADH (Class I) = test: Kinetics of enzymatic reduction of methoxynaphthaldehydes by β1β1 ADH; format: biochemical, human; details: pH 7.0, 50 μM NADH; spectrophotometric
β2 β2 ADH (Class I) = biological target: T2, β2 β2 ADH (Class I) (Homo sapiens, UniProt P00325); test: Kinetics of enzymatic reduction of methoxynaphthaldehydes by β2β2 ADH; format: biochemical; details: Table IV; nm = not measurable
T2 construct: beta2 allele (ADH1B*2)
Procedure: (§1) Aldehyde reduction was monitored by following the decrease of absorption at 340 nm in 40 mM Mes buffer, pH 7.1. in the presence of saturating NADH, 50 μM for Class I and 100 μM for Class II. […] Initial reaction rates were measured and kinetic parameters determined by conventional procedures as described by Segel, 1975, Enzyme Kinetics, pp. 591-597, Wiley, N.Y.
All reaction mixtures (3 ml total volume) were prepared directly in 1 cm pathlength, 4 ml fluorometric cuvettes by adding 150 μl of the 300 μM substrate solution (e.g substrate IA or IIA) 100 μl of the 1 mM NADH solution (prepared as in part 5 above) and 2.69 ml of assay buffer (0.1M phosphate, pH 7.6). […]
(§2) The linear increase of fluorescence was then recorded for 1-10 minutes, until 0.03-1 μM of substrate was consumed. […] The added product fluorescence intensity was then measured Fluorescence measurements were optimized for samples with low activity (<1 nM/minute). […] Rates measured in the presence of the 0.2 mM ADH inhibitors. […]
The rates of aldehyde reduction, determined as initial velocities (V) and expressed in units of nM/minute, were calculated according to: [formula] where the quantity in parentheses is the slope of the linear fluorescence increase calculated from the quantities Ft and FO, the fluorescence at time t and at the beginning of the reaction, respectively. […]

[1] = Stability of substrates and product solutions; format: physicochemical; details: for stability in stock solution: 20° C., 30 days, water:acetonitrile (70:30 v/v)
Procedure: The dilute solutions (300 μM) were prepared by diluting 1 ml of the stock solution to 10 ml with water.
Concentrations were determined spectrophotometrically using a molar absorptivity of 5700 M^-1 cm^-1 at 296 nm for IB and 1270 M^-1 cm^-1 at 330 nm for IIB.

[2] = test system: ADH in human serum (Class I); test: Fluorometric measurement of serum ADH activity with substrate IA; format: biochemical; details: between-run repeatability, 2 minutes reaction, n=5
Procedure: (§3) All reaction mixtures (3 ml total volume) were prepared directly in 1 cm pathlength, 4 ml fluorometric cuvettes by adding 150 μl of the 300 μM substrate solution (e.g substrate IA or IIA) 100 μl of the 1 mM NADH solution (prepared as in part 5 above) and 2.69 ml of assay buffer (0.1M phosphate, pH 7.6). After thermal equilibration (25° C.) for 5 minutes, 60 μl of isozyme sample (either serum or purified ADH isozymes) was added to the cuvette.
The linear increase of fluorescence was then recorded for 1-10 minutes, until 0.03-1 μM of substrate was consumed. Larger substrate consumption was not found to be desirable (described in subpart (c) below). […] The added product fluorescence intensity was then measured Fluorescence measurements were optimized for samples with low activity (<1 nM/minute). […] Rates measured in the presence of the 0.2 mM ADH inhibitors. […]
The rates of aldehyde reduction, determined as initial velocities (V) and expressed in units of nM/minute, were calculated according to: [formula] where the quantity in parentheses is the slope of the linear fluorescence increase calculated from the quantities Ft and FO, the fluorescence at time t and at the beginning of the reaction, respectively. Cst is the concentration of the product used as a standard added to the cuvette after the initial rate had been measured and Fst is the fluorescence intensity of the added product […]

β1 γ2 ADH (Class I) = biological target: T3, β1 γ2 ADH (Class I) (Homo sapiens, UniProt P00325+P00326, I350V/R272Q); test: Kinetics of enzymatic reduction of methoxynaphthaldehydes by β1γ2 ADH; format: biochemical; details: rate relative to ethanol oxidation at pH 10.0
T3 construct: beta1 (ADH1B*1) and gamma2 (ADH1C*2) alleles
Procedure: Standard assays for ethanol oxidation activity (Dalziel, 1957, Acta Chem Scand 11:1706-23) were carried out on a Cary 219 spectrophotometer interfaced with an Apple IIe microcomputer, using software provided by Varian Associates. The reaction mixture contained 2.5 mM NAD^+ in 0.1M glycine-NaOH buffer. pH 10.0, and 33 mM or 0.2M ethanol for Class I and Class II ADH, respectively.
Aldehyde reduction was monitored by following the decrease of absorption at 340 nm in 40 mM Mes buffer, pH 7.1. in the presence of saturating NADH, 50 μM for Class I and 100 μM for Class II. […] Initial reaction rates were measured and kinetic parameters determined by conventional procedures as described by Segel, 1975, Enzyme Kinetics, pp. 591-597, Wiley, N.Y. […]
as §2
Additionally the reaction rates for these isozymes were compared to those measured by the standard assay for ethanol oxidation (see part 7 above) at pH 10.0 the optimum for oxidation of ethanol by ADH. […]

Class I ADH = test: Kinetics of enzymatic reduction of methoxynaphthaldehydes by Class I ADH isozymes; format: biochemical, human; details: for kcat / Km: Table IV; for kcat: average for Class I isozymes except ββ forms; for Km: range over Class I isozymes
Procedure: as §1, §3
(§4) The linear increase of fluorescence was then recorded for 1-10 minutes, until 0.03-1 μM of substrate was consumed. Larger substrate consumption was not found to be desirable (described in subpart (c) below). After this period the instrument sensitivity setting was reduced 10-30 fold, the signal compensated once again by zero suppression (see part 6 above), and 60 μl of 200-400 μM product (e.g., product IB or IIB) was added to provide an internal standard. The added product fluorescence intensity was then measured Fluorescence measurements were optimized for samples with low activity (<1 nM/minute). For samples with higher activity, repeat measurements were made with the serum volume reduced from 60 μl to 10 μl. Rates measured in the presence of the 0.2 mM ADH inhibitors. 4-MeP or 4-PeP, were made by adding 50 μl of 12 mM inhibitor to the cuvette prior to the assay buffer, and the reaction was carried out as above.
(§5) The rates of aldehyde reduction, determined as initial velocities (V) and expressed in units of nM/minute, were calculated according to: [formula] where the quantity in parentheses is the slope of the linear fluorescence increase calculated from the quantities Ft and FO, the fluorescence at time t and at the beginning of the reaction, respectively. Cst is the concentration of the product used as a standard added to the cuvette after the initial rate had been measured and Fst is the fluorescence intensity of the added product
Additionally the reaction rates for these isozymes were compared to those measured by the standard assay for ethanol oxidation (see part 7 above) at pH 10.0 the optimum for oxidation of ethanol by ADH. The rate of IA reduction for all Class I isozymes except the β1 β1 form is 1.5- to 4-fold faster than that of ethanol oxidation as measured by the conventional ethanol oxidation assay. […] Table III illustrates that IIA is an excellent substrate for Class II (.eta.) ADH, with a rate of IIA reduction at least 8-fold faster than that of ethanol oxidation.
The values for these constants were determined with purified Class II ADH or a mixture of purified Class I isozymes, under the fluorometric assay conditions described above in Example 1.

Class III (.chi.) ADH = Class III (.chi.) ADH (Homo sapiens, UniProt P11766); test: Kinetics of enzymatic reduction of methoxynaphthaldehydes by Class III ADH; format: biochemical
[3] = biological target: ADH in human serum (Class II) (Homo sapiens, UniProt P08319); test: Fluorometric measurement of serum ADH activity with substrate IIA; format: biochemical
Procedure: as §3
as §4, with “For samples with higher activity, repeat measurements were made with the serum volume reduced from 60 μl to 10 μl.” left out, “4-MeP or 4-PeP, were made by adding 50 μl of 12 mM inhibitor to the cuvette prior to the assay buffer, and the reaction was carried out as above.” left out
as §5
Using the instrumentation described in Example 1, part 7, reaction rates as low as 6.5 nM/minute for IA and 25 nM/minute for IIA were reproducible. The limits of detection, i.e.. the point at which the fluorescence change after eight minutes becomes twice the noise level, were 1 nM/minute and 5 nM/minute for the two substrates, IA and IIA, respectively. […]

Sequence of Class III (.chi.) ADH (P11766 whole entry): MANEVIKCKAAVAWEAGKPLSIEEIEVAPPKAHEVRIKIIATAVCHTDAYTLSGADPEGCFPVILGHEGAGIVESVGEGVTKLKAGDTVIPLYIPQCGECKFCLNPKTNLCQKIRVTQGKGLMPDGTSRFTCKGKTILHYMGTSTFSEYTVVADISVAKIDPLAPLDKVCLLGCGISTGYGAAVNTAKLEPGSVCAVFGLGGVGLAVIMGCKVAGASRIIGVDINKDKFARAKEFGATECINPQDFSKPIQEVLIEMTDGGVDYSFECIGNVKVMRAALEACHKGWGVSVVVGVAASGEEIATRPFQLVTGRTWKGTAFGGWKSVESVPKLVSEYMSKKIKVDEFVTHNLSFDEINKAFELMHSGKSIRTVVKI
Sequence of ADH in human serum (Class II) (P08319 whole entry): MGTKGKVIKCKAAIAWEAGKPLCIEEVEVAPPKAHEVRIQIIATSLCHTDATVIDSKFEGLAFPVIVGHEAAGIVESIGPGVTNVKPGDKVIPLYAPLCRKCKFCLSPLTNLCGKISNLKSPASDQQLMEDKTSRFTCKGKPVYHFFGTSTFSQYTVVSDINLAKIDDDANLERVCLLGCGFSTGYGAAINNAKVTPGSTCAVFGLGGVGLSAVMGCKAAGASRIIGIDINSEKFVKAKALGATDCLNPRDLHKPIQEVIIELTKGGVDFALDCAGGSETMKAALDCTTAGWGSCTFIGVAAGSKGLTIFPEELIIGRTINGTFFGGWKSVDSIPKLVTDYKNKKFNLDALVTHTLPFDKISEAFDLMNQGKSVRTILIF
T3 sequence (P00325 2-375, stated change not applied): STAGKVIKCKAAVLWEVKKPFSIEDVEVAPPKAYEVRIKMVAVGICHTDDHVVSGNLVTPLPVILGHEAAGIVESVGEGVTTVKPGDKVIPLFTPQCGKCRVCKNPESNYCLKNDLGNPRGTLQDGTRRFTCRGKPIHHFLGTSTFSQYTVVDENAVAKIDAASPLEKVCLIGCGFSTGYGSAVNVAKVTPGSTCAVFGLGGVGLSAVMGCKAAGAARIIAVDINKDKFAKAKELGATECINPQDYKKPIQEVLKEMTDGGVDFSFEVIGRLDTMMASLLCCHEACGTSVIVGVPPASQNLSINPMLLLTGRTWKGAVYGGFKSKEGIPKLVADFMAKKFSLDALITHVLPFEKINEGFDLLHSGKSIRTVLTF
T3 sequence (P00326 2-375 R272Q/I350V): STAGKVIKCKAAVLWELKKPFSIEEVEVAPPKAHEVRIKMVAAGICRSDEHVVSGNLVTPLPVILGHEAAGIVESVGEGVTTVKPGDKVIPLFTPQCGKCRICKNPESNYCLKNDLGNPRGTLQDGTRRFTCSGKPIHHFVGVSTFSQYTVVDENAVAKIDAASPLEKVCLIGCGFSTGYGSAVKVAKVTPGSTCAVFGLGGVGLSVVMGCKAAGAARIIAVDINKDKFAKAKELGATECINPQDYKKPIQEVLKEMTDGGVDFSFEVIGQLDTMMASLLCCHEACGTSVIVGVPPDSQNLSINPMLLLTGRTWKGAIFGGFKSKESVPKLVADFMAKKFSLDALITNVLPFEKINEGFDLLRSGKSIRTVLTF
T1 sequence (P00326 2-375): as the sequence (P00326 2-375 R272Q/I350V) above, with Q271R, V349I counted along it
T2 sequence (P00325 2-375): as the sequence (P00325 2-375, stated change not applied) above

SMILES: COc1ccc(C=O)c2ccccc12 [IA, 4-methoxy-1-naphthaldehyde]
- v/v (EtOH) (γ1 γ1 ADH (Class I)): 1.54
- Km (β1 β1 ADH (Class I)): 4 µM
- kcat (β1 β1 ADH (Class I)): 0.033 s⁻¹
- Km (β2 β2 ADH (Class I)): nM
- stability in stock solution [1]: spectral changes were not observed
- stability in crystalline state [1]: stable
- stability of dilute aqueous solutions [1]: much less stable
- Average rate [2]: 144.8 nM/min
- v/v (EtOH) (β1 γ2 ADH (Class I)): 3.4
- kcat (Class I ADH): 5.83 s⁻¹
- Km (Class I ADH): 0.6 to 8.5 µM
- a: ratio of specific rates for Class I to Class II ADH with IA as substrate (Class I ADH; fluorometric assay conditions): 0.022

SMILES: COc1ccc2cc(C=O)ccc2c1 [IIA, 6-methoxy-2-naphthaldehyde]
- Km (Class III (.chi.) ADH; Class III ADH): > 500 µM
- Km (Class III (.chi.) ADH; pH 7.0, 50 μM NADH, NR = no reaction detected): > 500 µM
- substrate quality for Class III ADH (Class III (.chi.) ADH; words): very poor substrate
- v/v (EtOH) (γ1 γ1 ADH (Class I)): 0.45
- limit of detection ([3]; fluorescence change twice noise after eight minutes): 5 nM/min
- lowest reproducible reaction rate ([3]; serum): 25 nM/min
- serum activity for IIA ([3]; thirty of thirty six hospital patient sera, average): 15 ± 7 nM/min
- Km (β1 β1 ADH (Class I)): 5.4 µM
- kcat (β1 β1 ADH (Class I)): 1.28 s⁻¹
- stability in stock solution [1]: spectral changes were not observed
- stability in crystalline state [1]: stable
- stability of dilute aqueous solutions [1]: much less stable
- v/v (EtOH) (β1 γ2 ADH (Class I)): 1.6
- rate of reduction versus ethanol oxidation (Class I ADH; Class I isozymes, words): generally slower, but still comparable
- kcat (Class I ADH): 1.83 s⁻¹
- Km (Class I ADH): 0.4 to 11.5 µM
- d: ratio of specific rates for Class I ADH with IIA and IA as substrates (Class I ADH; average value): 0.27
- ratio of specific rates for Class I to Class II ADH with IIA as substrate (Class I ADH; average value): 0.27
